{
  "source": "patent US9677063B2",
  "about": "“Use of a cysteine protease of plasmodium vivax” (SAMSUNG ELECTRONICS CO., LTD., priority 2009, dated 2017)",
  "key": {"[1]": {"system": "rVX-4", "conditions": "fully processed 28 kDa rVX-4", "quoted_text": "The purified rVX-4 was refolded and activated, and aliquots collected every 30 min were analyzed by 12% SDS-PAGE with Coomassie staining (left). The proteolytic activity of fully processed rVX-4 was analyzed by a gelatin gel-zymogram (right).\nFor activity gel electrophoresis, the obtained refolded rVX-4 was mixed with SDS-PAGE sample buffer lacking 2-mercaptoethanol and subjected to 12% SDS-PAGE co-polymerized with 0.1% gelatin. The gel was washed with 2% Triton X-100 (30 min), incubated overnight with 100 mM sodium acetate (pH 5.5) containing 10 mM DTT at 37° C. and stained with Coomassie Blue."}, "[2]": {"system": "rVX-4", "conditions": "rVX-4 1 μM, pH 5.5, 6.5, 7.5, 30 min room temperature, substrate Z-LR-MCA", "quoted_text": "The optimal pH was assessed in 100 mM sodium acetate (pH 4.5-5.5), 100 mM sodium phosphate (pH 6.0-6.5) and 100 mM Tris-HCl (pH 7.0-8.5). The enzymes (50 nM) were added to each buffer supplemented with 10 mM DTT and 5 μM Z-L-phenylalanyl-L-arginine 4-methyl-coumaryl-7-amide (Z-FR-MCA), Z-leucyl-L-arginine-MCA (Z-LR-MCA), or Z-L-arginyl-L-arginine 4-methyl-coumaryl-7-amide (Z-RR-MCA) (Peptide International). The appropriate buffers were separately employed as controls at each pH. Enzyme activity was measured as described above. The effects of reducing agents were examined under various concentrations of GSH, and pH stability was examined at pH 5.0 and 8.0 by incubating rVX-4 at 37° C. in the appropriate buffer.\nResidual activities (%) were determined using Z-LR-MCA as a substrate."}, "[3]": {"system": "rVX-4", "conditions": "E-64 1 μM, in presence of pepstatin A, pH 5.0-7.0, rVX-4 50 nM, 3 h at 37° C.", "quoted_text": "Recombinant PvPMs expressed in E. coli cells were purified by Ni-NTA chromatography (Qiagen) and refolded as described above. rVX-4 (50 nM) was incubated with PvPMs (20 μg each) in 100 mM sodium acetate (pH 5.0-5.5), 100 mM sodium phosphate (pH 6.0-6.5), or 100 mM Tris-HCl (pH 7.0-7.5) supplemented with 10 mM DTT for 3 h. The experiments were also performed in the presence of E-64 (1 μM) and/or pepstatin A (10 μM, Sigma-Aldrich).\nThe inventors examined possible roles for VX-4 during maturation of recombinant PvPM4 (rPvPM4), which was expressed in E. coli as above, and the results are shown in FIG. 5(A). […] Recombinant PvPM 4 (20 μg) was incubated with rVX-4 (50 nM) supplemented with 10 mM DTT at different pH values with or without pepstatin A (PepA, 10 μM) or E-64 (1 μM) for 3 h at 37° C. The reactants were analyzed by 12% SDS-PAGE."}, "[4]": {"system": "VX-3", "test": "Substrate hydrolysis kinetics for vivapains (peptide-MCA substrates)", "assay_type": "biochemical, Plasmodium vivax", "conditions": "pH 5.5, 6.5, 7.5", "experimental": "Cysteine protease activity was ascertained by the hydrolysis of benzyloxycarbonyl-L-leucyl-L-arginine 4-methyl-coumaryl-7-amide (Z-LR-MCA) (Peptide International, Louisville, Ky.). […] The release of fluorescence was assessed at excitation and emission wavelengths of 355 nm and 460 nm with a SpectraMAX Gemini fluorometer (Molecular Devices, Sunnyvale, Calif.).\n(§1) The release of MCA was monitored over 10 min at room temperature as described above. Activities were compared as fluorescence over time. The kinetic constants Km and Vmax were determined using GraphPad software."}, "[5]": {"system": "VX-2", "test": "Substrate hydrolysis kinetics for vivapains (peptide-MCA substrates)", "assay_type": "biochemical, Plasmodium vivax", "conditions": "pH 5.5, 6.5, 7.5", "experimental": "(§2) Cysteine protease activity was ascertained by the hydrolysis of benzyloxycarbonyl-L-leucyl-L-arginine 4-methyl-coumaryl-7-amide (Z-LR-MCA) (Peptide International, Louisville, Ky.). Enzyme (xVX, 30 μl; 200 nM) was added to 100 mM sodium acetate (220 μl, pH 5.5) containing 5 μM Z-LR-MCA and 10 mM DTT. The release of fluorescence was assessed at excitation and emission wavelengths of 355 nm and 460 nm with a SpectraMAX Gemini fluorometer (Molecular Devices, Sunnyvale, Calif.).\nas §1"}, "[6]": {"system": "VX-4", "test": "Substrate hydrolysis kinetics for vivapains (peptide-MCA substrates)", "assay_type": "biochemical, Plasmodium vivax", "experimental": "as §2, §1"}, "[7]": {"system": "VX-4", "test": "Determination of pH optimum of enzyme activity against peptide substrates", "assay_type": "biochemical, Plasmodium vivax", "conditions": "5 μM substrate, 10 mM DTT, 37° C., pH 4.5-8.5", "experimental": "Enzyme activity was measured as described above.\nFIG. 3(C) relates to determination of pH optimum. […] Activity was measured at 37° C. each against Z-FR-MCA (▪), Z-LR-MCA (∘), and Z-RR-MCA (●). Maximal activity was presented as 100%. As shown in FIG. 3(C), the enzymatic activity was highest at pH 5.5. The pH-optimum was substantially different with a substrate containing a basic AA at P2 (Z-RR-MCA) with maximal activity at pH 6.5, and activity seen above pH 8."}, "[8]": {"system": "VX-4 mutants containing E180A", "test": "Activity of mutant VX-4s against peptide substrates", "assay_type": "biochemical, Plasmodium vivax", "conditions": "100 mM Tris-HCl pH 7.5, 10 mM DTT, 37° C.", "experimental": "Site-directed mutagenesis was performed using a QuickChange II Site-Directed Mutagenesis Kit (Stratagene, Calif.). A pair of complementary primers with 39 bases was designed and a mutation to replace Ala90 to Ile (A90I), Gly154 to Ser (G154S) or Glu180 to Ala (E180A) was placed in the middle of the primers, as follows: […]\nParental DNA inserted in pQE-30 (Qiagen, Calif.) as prepared in Example 2 was amplified using Pfu Ultra HF DNA polymerase with these primers for 16 cycles in a DNA thermal cycler (Perkin-Elmer). After digestion of the parental DNA with Dpn I, the amplified DNA with nucleotide substitution was incorporated and transformed into E. coli XL1-Blue (Stratagene). The mutations were verified by DNA sequencing. Double and triple point mutagenesis of A90I, G154S, and E180A were also done as described above. Each mutant plasmid was transformed into competent E. coli M15 (pREP4) cells (Qiagen). Each recombinant protein was individually expressed, purified and refolded as described above.\nIn assays against peptide substrates, all of the mutants harboring A901 and G154S by single or multiple substitutions maintained the pH-dependent substrate specificity of wild-type VX-4. Conversely, those containing E180A lost activity against Z-RR-MCA at pH 7.5 (FIG. 4(C)). […]"}, "[9]": {"system": "P. vivax plasmepsin 4 (PvPM4)", "test": "Autocatalytic processing of recombinant PvPM4 (SDS-PAGE)", "assay_type": "biochemical, Plasmodium vivax", "conditions": "pepstatin A 10 μM, 3 h at 37° C.", "experimental": "The reactants were analyzed by 12% SDS-PAGE."}, "[10]": {"conditions": "rVX-4, pH 7.5 compared with pH 5.5"}},
  "note": "Square brackets hold non-standard residues; d marks the D form. Peptide text beside a SMILES is read from it. * marks the point of attachment. Sta = CC(C)C[C@H](N)[C@@H](O)CC(=O)O; AMC = Cc1cc(=O)oc2cc(N*)ccc12; Isovaleryl = CC(C)CC(=O)*; Cbz = O=C(OCc1ccccc1)*",
  "data": [
    {"compound": "CC(C)C[C@H](NC(=O)[C@H]1O[C@@H]1C(=O)O)C(=O)NCCCCN=C(N)N", "note": "(relative stereo) [E-64, trans-epoxysuccinyl-L-leuciloamido-(4-guanidino) butane]", "values": [
      {"measurement": "inhibition of protease activity in gelatin-gel electrophoresis", "setting": "[1]", "result": "completely inhibited"},
      {"measurement": "E-64 concentration needed to inhibit rVX-4 depending on pH", "setting": "[2]", "result": "increased concentrations of E-64 to inhibit rVX-4 at higher pH"},
      {"measurement": "effect on rVX-4 cleavage of rPvPM4", "setting": "[3]", "result": "specifically and significantly inhibited"}
    ]},
    {"compound": "Cc1cc(=O)oc2cc(NC(=O)[C@H](CCCNC(=N)N)NC(=O)[C@H](Cc3ccccc3)NC(=O)OCc3ccccc3)ccc12", "note": "[Z-FR-MCA, benzyloxycarbonyl-L-phenylalanyl-L-arginine 4-methyl-coumaryl-7-amide] (Cbz-Phe-Arg-{AMC})", "values": [
      {"measurement": "hydrolysis by rVX-3", "setting": "[4]", "result": "could not hydrolyze"},
      {"measurement": "hydrolysis by rVX-2", "setting": "[5]", "result": "could not hydrolyze"},
      {"measurement": "hydrolysis by rVX-4", "setting": "[6]; pH 7.5", "result": "not hydrolyzed"},
      {"measurement": "pH of maximal enzyme activity", "setting": "[7]", "result": 5.5}
    ]},
    {"compound": "Cc1cc(=O)oc2cc(NC(=O)[C@H](CCCNC(=N)N)NC(=O)[C@H](CC(C)C)NC(=O)OCc3ccccc3)ccc12", "note": "[Z-LR-MCA, benzyloxycarbonyl-L-leucyl-L-arginine 4-methyl-coumaryl-7-amide]", "values": [
      {"measurement": "decrease of kcat/Km at pH 7.5", "setting": "[6]; [10]", "result": 5.6, "unit": "fold"},
      {"measurement": "pH of maximal enzyme activity", "setting": "[7]", "result": 5.5}
    ]},
    {"compound": "Cc1cc(=O)oc2cc(NC(=O)[C@H](CCCNC(=N)N)NC(=O)[C@H](CCCNC(=N)N)NC(=O)OCc3ccccc3)ccc12", "note": "[Z-RR-MCA, benzyloxycarbonyl-L-arginyl-L-arginine 4-methyl-coumaryl-7-amide] (Cbz-Arg-Arg-{AMC})", "values": [
      {"measurement": "hydrolysis by rVX-3", "setting": "[4]", "result": "could not hydrolyze"},
      {"measurement": "hydrolysis by rVX-2", "setting": "[5]", "result": "could not hydrolyze"},
      {"measurement": "increase of kcat/Km at pH 7.5", "setting": "[6]; [10]", "result": 2.6, "unit": "fold"},
      {"measurement": "pH of maximal enzyme activity", "setting": "[7]", "result": 6.5},
      {"measurement": "activity of E180A-containing VX-4 mutants against substrate", "setting": "[8]", "result": "lost activity"}
    ]},
    {"compound": "CC(C)CC(=O)N[C@H](C(=O)N[C@H](C(=O)N[C@@H](CC(C)C)[C@@H](O)CC(=O)N[C@@H](C)C(=O)N[C@@H](CC(C)C)[C@@H](O)CC(=O)O)C(C)C)C(C)C", "note": "[pepstatin A] (Isovaleryl-VV[Sta]A[Sta]-OH)", "values": [
      {"measurement": "effect on autocatalytic processing of rPvPM4", "setting": "[9]", "result": "completely blocked"}
    ]}
  ]
}
